# System: child and adolescent patients with DEEs
# Assay: BELIEVE: Sleep Disturbance Scale for Children (SDSC)
# Format: in vivo, human
# Conditions: Week 26, negative = improvement, vs revised Baseline mean of completers
# Method: This was a sequential, multi-stage, open-label, multi-national, multiple-center, multiple-dose study to assess the long-term safety, tolerability, and efficacy of ZYN002 (transdermal CBD gel) in child and adolescent epilepsy patients from 3 to 18 years of age having seizures associated with developmental and epileptic encephalopathies (DEE) according to the International League Against Epilepsy (ILEA) classification (Scheffer et al. 2017). The study was conducted to evaluate efficacy of ZYN002 in DEE patients with ASD. The objective of the study also included evaluating the effects of ZYN002 transdermal CBD gel on QoL, sleep, and caregiver qualitative assessment in child and adolescent patients with DEEs.
# • Change from baseline to the end of Period A in the SDSC
smiles,measurement,setting,value
"C=C(C)C1CCC(C)=CC1c1c(O)cc(CCCCC)cc1O (stereo not shown) [CBD, 2-[3-methyl-6-(1-methylethenyl)-2-cyclohexen-1-yl]-5-pentyl-1,3-benzenediol]","SDSC Sleep Breathing Disorders (SBD), Change from Baseline",All Patients (DEE),no significant change
same,"SDSC Sleep Breathing Disorders (SBD), Change from Baseline",DEE Patients >70 Total Score,no significant change
same,"SDSC Sleep Breathing Disorders (SBD), Change from Baseline",DEE-ASD Patients >70 Total Score,−6.7
same,"SDSC Sleep Breathing Disorders (SBD), Change from Baseline",DEE-ASD Patients,−3.9

# From US20260240876A1, “TREATMENT OF SLEEP APNEA WITH CBD” (Harmony Biosciences Management, Inc., priority 2021, published 2026)
